Laboratory results as given in patent publication US11261429B2, “Enriched and expanded human cord blood stem cells for treatment of hematological disorders” (ICAHN SCHOOL OF MEDICINE AT MOUNT SINAI, priority 2013, dated 2022).

Legend:
Type in all cases: cell-based, human
CB CD34+ cells [1] = test: Effect of siRNA transfection on cell numbers and CD34+/CD34+CD90+ cells; settings: VPA culture, 72 hrs after transfection
Method: CB CD34+ cells were treated with VPA under SF culture conditions. VPA-treated cells were transfected with individual SOX2, OCT4, NANOG, GAPDH, and scrambled siRNA or with a combination of SOX2, OCT4, and NANOG Silencer Select siRNAs (Invitrogen, CA). A GFP plasmid was included to determine the transfection efficiency according to the manufacturer's instructions for the Neon transfection system (Invitrogen).
After 72 hours of VPA treatment, cells (0.5×10^6 to 1×10^6) were washed in PBS and suspended in 8 μl of Neon resuspension buffer R. Individual siRNAs (2 μl, 10-30 nM) or a combination of SOX2, OCT4, NANOG (SON), or pcDNA6.2/EmGFP plasmid (200 ng; Invitrogen) were mixed with the 8 μl of cells according to the manufacturer's instructions. Cells were pulsed three times with a voltage of 1,400 and a width of 20 ms and immediately transferred to pre-warmed media supplemented with cytokines plus VPA. […]
In addition, cells treated with scrambled or combined SON siRNA were stained using human CD34 and CD90 mAbs, and the percentages of CD34+ and CD34+CD90+ cells were determined by flow cytometric analysis. […] SOX2, OCT4, NANOG, and ZIC3 protein expression levels following SON siRNA-mediated pluripotency gene knockdown were assessed by confocal microscopy as described above.

[2] = test system: ALDH+CD34+ and ALDH-CD34+ cells; test: BFU-E + CFU-Mix generated from sorted ALDH+CD34+ and ALDH-CD34+ cells
From the text: A far greater number of BFU-E+CFU-Mix were generated from ALDH+CD34+ cells generated in the presence of each of the HDACI in SF cultures as compared with SC cultures (ANOVA, p=0.001). By contrast, a greater number of BFU-E+CFU-Mix were generated from ALDH-CD34+ cells in SC cultures as compared to SF cultures. Mean±SE, ANOVA, p=0.01 (n=3).
Purified ALDH+CD34+ cells generated using SF cultures supplemented with VPA generated greater absolute numbers of BFU-E and CFU-Mix (8.4×10^7±6.7×10^7/CB collection) as compared to SC cultures (1.4×10^7±0.88×10^7; ANOVA, p=0.001) (FIG. 20A). By contrast, ALDH-CD34+ cells from SC cultures supplemented with VPA generated greater numbers of BFU-E and CFU-Mix (2.7×10^6±1.0×10^6) as compared to SF cultures (3.5×10^5±0.78×10^5) (ANOVA, p=0.01) (FIG. 20B).

HDAC1 = test: HDAC protein levels in CB-MNCs, Western blot densitometry; settings: 24 hr, SCR 8 μM, C433 80 μM, VPA 1.25 mM
CB CD34+ cells [3] = test: Migration assay towards SDF1 (Transwell); settings: SDF1 100 ng/ml, after 16 and 48 hours, versus control
Method: The migratory behavior of CB CD34+ cells was evaluated as previously described using 6.5 mm diameter, 5 μm pore Transwell plates (Costar) (Shivtiel et al., “CD45 Regulates Homing and Engraftment of Immature Normal and Leukemic Human Cells in Transplanted immunodeficient Mice,” Exp. Hematol. 39(12):1161-1170 (2011), which is hereby incorporated by reference in its entirety). The lower compartments of the Transwells were filled with StemLine II SF medium supplemented with 100 ng/ml of stromal-derived factor 1 (SDF1) (R&D Systems). The Transwell filters were coated with Matrigel for 30 minutes at 37° C. Re-isolated CD34+ cells (1×10^5) from the control and VPA-containing cultures were plated on the Matrigel-coated filters in 100 μl of Stemline II media. After 16 and 48 hours, cells that migrated to the lower compartment were enumerated, and the percentage of migration was calculated as follows: (number of cells migrated/total number of cells plated)×100.

NANOG = test: Pluripotency protein expression in re-isolated CD34+ cells, mAb staining and flow cytometry; settings: 7 days
Method: (§1) PCs and re-isolated, cultured CD34+ cells from control cultures and cultures containing VPA were fixed with methanol-free formaldehyde (2.8%) for 10 minutes at 37° C., briefly chilled on ice, and permeabilized with 100% ice-cold methanol. Cells were further incubated on ice for 20 minutes and blocked with incubation buffer (PBS containing 0.5% BSA) for 10 minutes and stained for SOX2 and OCT4 with an FITC-conjugated mAb or isotype controls for an hour at room temperature. Cells were also stained with a rabbit mAb for NANOG, followed by an FITC-conjugated anti-rabbit secondary antibody, and cells were washed and analyzed by flow cytometry.

SOX2 = test: as above; settings: 7 days
Method: as §1

OCT4 = test: as above; settings: 7 days
Method: as §1

CB CD34+ cells [4] = test: Ex vivo expansion of CB CD34+ cells with HDACIs, phenotypic analysis by flow cytometry; settings: VPA alone (no cytokines), SF, 7 days after 16 h priming
HDAC3 = test: HDAC protein levels in CB-MNCs, Western blot densitometry; settings: 24 hr, SCR 8 μM, C433 80 μM, VPA 1.25 mM
From the text: Cellular proteins were separated by SDS-PAGE using Novex (Invitrogen) and transferred by iBlot (Invitrogen). The membranes were probed with mAbs against individual histone deacetylases (HDAC1, HDAC2, HDAC3, HDAC4, HDAC5, HDAC6, and β-actin; Cell Signaling Technology) and developed using a chemiluminescence system with HRP-conjugated secondary antibodies (Amersham Biosciences) according to the manufacturer's instructions.

[5] = SC cultures supplemented with VPA
[6] = SF cultures supplemented with VPA

CCCC(CCC)C(=O)O [VPA, valproic acid]
CD34+CD90+ cells (%) (CB CD34+ cells [1]): 78.6 ± 2.0 % | Total number of cells/well (CB CD34+ cells [1]): 4.0 × 10^6 ± 0.4 × 10^6 cells/well | absolute numbers of BFU-E and CFU-Mix from ALDH+CD34+ cells [2, 5]: 1.4×10^7±0.88×10^7 | numbers of BFU-E and CFU-Mix from ALDH-CD34+ cells [2, 5]: 2.7×10^6±1.0×10^6 | absolute numbers of BFU-E and CFU-Mix from ALDH+CD34+ cells [2, 6]: 8.4×10^7±6.7×10^7 /CB collection | numbers of BFU-E and CFU-Mix from ALDH-CD34+ cells [2, 6]: 3.5×10^5±0.78×10^5 | HDAC1 expression relative to b-ACTIN (%) (HDAC1): 25.48 ± 7.78% | migration of CD34+ cells in response to SDF1 (CB CD34+ cells [3]): significantly greater number of CD34+ cells treated with VPA migrated in response to SDF1 | percentage of CD34+ cells expressing NANOG (NANOG; SC cultures): 5.6 ± 1.4^A % | percentage of CD34+ cells expressing NANOG (NANOG; SF cultures): 57.6 ± 6.8^A % | percentage of CD34+ cells expressing SOX2 (SOX2; SC cultures): 3.9 ± 1.9^A % | percentage of CD34+ cells expressing SOX2 (SOX2; SF cultures): 23.1 ± 6.5^A % | percentage of CD34+ cells expressing OCT4 (OCT4; SC cultures): 8.2 ± 1.7^A % | percentage of CD34+ cells expressing OCT4 (OCT4; SF cultures): 32.9 ± 3.8^A % | fold expansion of CD34+ cells per CB collection (CB CD34+ cells [4]): 9.0 fold | fold expansion of CD34+CD90+ cells per CB collection (CB CD34+ cells [4]): 486 fold | HDAC3 expression relative to b-ACTIN (%) (HDAC3): 11.4 ± 12.4%
